Earlier results as cited in patent US8709164B2, “Methods and compositions for dislodging debris particles from a substrate” (University of South Carolina, priority 2010, dated 2014).

Assays:
D. farinae = conditions: among 15 chemicals
D. pteronyssinus = conditions: washing soak with addition of 0.03% benzyl benzoate

| Structure (SMILES) | ability to kill D. farinae (words, order of potency) (D. farinae) | mites survived out of 10,000 (D. pteronyssinus) |
| --- | --- | --- |
| CCN(CC)c1nc(C)cc(OP(=S)(OC)OC)n1 [pirimiphosmethyl] | most effective | – |
| Cl[C@H]1[C@H](Cl)[C@@H](Cl)[C@@H](Cl)[C@H](Cl)[C@H]1Cl [Lindane] | most effective | – |
| O=C(OCc1ccccc1)c1ccccc1 [benzyl benzoate] | most effective | approximately 50 |
